Patent US4362746A (priority 1981, dated 1982)
Where a name gives a salt, the structure may show the parent alone. Read-outs that look alike come from different tables or passages of the source.

Experiments:
[1] = U.S. Pat. Nos. 3,932,512 and 4,046,811; cited from earlier work
Influenza A2 /MTL/68 = experiment: In vitro anti-myxovirus assay, inhibition of hemadsorption, Influenza A2/MTL/68 in G-2 cells; format: cell-based, Influenza A2 /Montreal/68; conditions: for inhibition at 5 µg/mL: 5 ug/ml; for inhibition at 10 µg/mL: 10 ug/ml; for inhibition at 25 µg/mL: 25 ug/ml; for inhibition at 33 µg/mL: 33 ug/ml; for inhibition at 50 µg/mL: 50 ug/ml
[2] = test system: Influenza A/Swine/1976/31; experiment: microbe, parasite or virus in culture; format: cell-based; conditions: in Sus scrofa
Influenza B/MASS/66 = experiment: In vitro anti-myxovirus assay, inhibition of hemadsorption, Influenza B/MASS/66 in G-2 cells; format: cell-based; conditions: Influenza B virus, 56 TCID50
Protocol: In preparing the compounds for testing, they were handled aseptically throughout. The compounds were dissolved in a minimum amount of a suitable solvent and the final dilutions were made up to the required volume in a complete culture medium used in assay and in concentration not exceeding the predetermined maximum non-toxic levels.
The antiviral assays were done in tissue cultures infected with an appropriate dose of an influenza virus.
The cell culture used in all in vitro anti-myxovirus assays was an established cell line of the human conjunctiva (G-2 cells). The cytotoxic studies of each of the compounds were performed prior to testing for antiviral activity to determine level of response of the cells to the potentially toxic action of the compounds.
For the antiviral assays the cells were grown in triplicates per dilution of compound in test tubes in a suitable medium. Immediately before use the initial medium was replaced with the one containing the test compound in an appropriate concentration. After virus was added at approximately 10 and 100 TCID50 dose levels the infected culture was incubated at 32° C. for a number of days. The medium was then drained, red blood cells added and after washing, the extent of hemadsorption evaluated. The percentage of inhibition of adsorption (a measure of antiviral activity) was then calculated. In all anti-myxovirus testing in vitro, as well as in vivo, amantadine (a known antiviral agent) was used as a reference standard.

[3] = test system: influenza virus A2 /Aichi/2/68; format: in vivo, mice (Charles River, random bred white, female); conditions: for Mean Survival Time / Survival % / Survival N (surviving animals / total infected) / Mean Survival Time Increase: 16 days; for Mean Survival Time Increase: vs virus only
G-2 cells = conditions: human, g-2 cells
in vivo [4] = conditions: mouse
in vivo [5] = conditions: mouse; remark: listed apart in the source
in vitro = conditions: human, g-2 cells
Acute toxicity in mice = conditions: mouse, in vivo
mice [6] = experiment: Acute toxicity in mice; conditions: after 24 hours
[7] = Subacute toxicity in mice; conditions: mouse, in vivo
mice [8] = experiment: Subacute toxicity in mice; conditions: for Subacute LD0 (non-lethal dose): once a day, seventeenth day of treatment
[9] = Exp. 2, virus dose 2.0 LD50, 300 mg/kg/day IP
[10] = Exp. 3, virus dose 2.6 LD50, 200 mg/kg/day IP
[11] = Exp. 4, virus dose 3.0 LD50, 200 mg/kg/day IP

SMILES: N[C@@H]1C[C@H]2C[C@@H]1c1ccccc12 (relative stereo) [1,2,3,4-tetrahydro-1,4-methanonaphthalen-endo-2-amine]
- antiviral activity [1]: exhibited antiviral activity

SMILES: N[C@H]1C[C@H]2C[C@@H]1c1ccccc12 (relative stereo) [isomer with the amino substituent taking up the exo configuration]
- antiviral activity [1]: showed no antiviral activity

SMILES: CN(C)C[C@H]1[C@@H](N)[C@@H]2C[C@H]1c1ccccc12 (relative stereo) [Compound B, endo-3-dimethylaminomethyl-endo-2-amino-1,2,3,4-tetrahydro-1,4-methanonaphthalene dihydrochloride]
- inhibition at 5 µg/mL (Influenza A2 /MTL/68; 32 TCID50): 0%
- inhibition at 10 µg/mL (Influenza A2 /MTL/68; 32 TCID50): 30%
- inhibition at 25 µg/mL (Influenza A2 /MTL/68; 32 TCID50): 78%
- inhibition at 33 µg/mL (Influenza A2 /MTL/68; 32 TCID50): 93%
- inhibition at 50 µg/mL (Influenza A2 /MTL/68; 32 TCID50): 93%
- inhibition at 5 µg/mL (Influenza A2 /MTL/68; 316 TCID50): 0%
- inhibition at 10 µg/mL (Influenza A2 /MTL/68; 316 TCID50): 0%
- inhibition at 25 µg/mL (Influenza A2 /MTL/68; 316 TCID50): 70%
- inhibition at 33 µg/mL (Influenza A2 /MTL/68; 316 TCID50): 76%
- inhibition at 50 µg/mL (Influenza A2 /MTL/68; 316 TCID50): 83%
- inhibition at 5 µg/mL ([2]; 316 TCID50, 5 ug/ml): 0%
- inhibition at 10 µg/mL ([2]; 316 TCID50, 10 ug/ml): 70%
- inhibition at 25 µg/mL ([2]; 316 TCID50, 25 ug/ml): 92%
- inhibition at 33 µg/mL ([2]; 316 TCID50, 33 ug/ml): 100%
- inhibition at 10 µg/mL (Influenza B/MASS/66; 10 ug/ml): 0%
- inhibition at 25 µg/mL (Influenza B/MASS/66; 25 ug/ml): 17%
- inhibition at 33 µg/mL (Influenza B/MASS/66; 33 ug/ml): 43%
- inhibition at 50 µg/mL (Influenza B/MASS/66; 50 ug/ml): 73%
- Mean Survival Time [3, 9]: 14.5 days
- Survival % [3, 9]: 70%
- Survival N (surviving animals / total infected) [3, 9]: 14/20
- Mean Survival Time Increase [3, 9]: +2.1 Days
- Mean Survival Time [3, 10]: 13.2 days
- Survival % [3, 10]: 40%
- Survival N (surviving animals / total infected) [3, 10]: 8/20
- Mean Survival Time Increase [3, 10]: +2.1 Days
- Mean Survival Time [3, 11]: 13.5 days
- Survival % [3, 11]: 45%
- Survival N (surviving animals / total infected) [3, 11]: 9/20
- Mean Survival Time Increase [3, 11]: +2.2 Days
- antiviral effect against influenza virus infection ([3]; administered intraperitoneally, […]): significant antiviral effect
- Cytotoxicity CTD50 (G-2 cells): > 100 µg/mL
- NOAEL at 24 h (in vivo [4]; ip): > 750 mg/kg/day
- NOAEL at 24 h (in vivo [4]; po): > 750 mg/kg/day
- NOAEL at 408 h (in vivo [5]; ip): 400 mg/kg/day
- NOAEL at 408 h (in vivo [5]; po): 750 mg/kg/day
- MNTC (in vitro; Cytotoxicity CTD0, maximal non-toxic concentration): 50 µg/mL
- CC50 (in vitro; Cytotoxicity CTD50): 100 µg/mL
- LD50 at 24 h (Acute toxicity in mice; ip): 550 mg/kg
- LD50 at 24 h (Acute toxicity in mice; po): > 750 mg/kg
- Acute LD0 (non-lethal dose) (mice [6]; IP): 450 mg/kg/day
- Acute LD0 (non-lethal dose) (mice [6]; PO): > 750 mg/kg/day
- LD50 at 408 h ([7]; ip): 500 mg/kg
- LD50 at 408 h ([7]; po): > 750 mg/kg
- Subacute LD0 (non-lethal dose) (mice [8]; IP): 450 mg/kg/day
- Subacute LD0 (non-lethal dose) (mice [8]; PO): > 750 mg/kg/day
- clinical sign of toxicity (weight) (mice [8]; PO, subacute, at TD0 750): Slight loss of weight
